Consider seven compounds from patent publication US9260484B2, “Small molecule composite surfaces as inhibitors of protein-protein interactions” (Ohio State Innovation Foundation, priority 2011, dated 2016).

In one assay the target is T1, FKBP (Homo sapiens, UniProt P62942).
T1 construct: 200 nM recombinant FKBP
Briefly: fluorescence polarization (FA) competition assay for binding to FKBP. Here is the method:
To facilitate solid-phase synthesis, an invariant glutamine was added to the C-terminal side of the R^1 residue, for the purpose of backbone peptide cyclization and providing an anchor for attachment to the solid support. For this set of compounds, the dipeptide Ala-Ala was used as the effector domain. The rapalogs were tested for binding to FKBP by a fluorescence polarization competition assay^22,23. SLF^24, was labeled with the fluorescent dye fluorescein^23. Binding of the labeled ligand to FKBP increases its fluorescence anisotropy (FA) values. Addition of an unlabeled ligand to the reaction inhibits the binding of SLF to FKBP and therefore decreases the FA values. […] Subsequently, the IC50 values were converted into KI values based on the Cheng-Prusoff equation.
A previously reported synthetic ligand of FKBP^46 (SLF in FIG. 2), was labeled with the fluorescent dye fluorescein^20. Binding of the labeled ligand to FKBP increases its fluorescence anisotropy (FA) value.
The fluorescence polarization based competition assay was performed in a 384-well plate. […] After the addition of the rapalogs as the last component, the binding reactions were incubated for 1 h at room temperature to reach binding equilibrium. Anisotropy values were measured on a FlexStation 3 plate reader (Molecular Devices, Sunnyvale, Calif.).
(In general: Polarisation of emitted light reports the rotation of a fluorescent probe.)

The test system of assay [1] is H358 lung cancer cell line. Description: MTT viability assay. Format: cell-based, human. Here is the method:
(§1) FIG. 14. MTT viability assay with H358 and A549 lung cancer cell lines (both have mutant K-Ras). The assay was performed to assess the effect of compound B12 on proliferation and survival of these cell lines.
(§2) Finally, preliminary cellular assays were performed with compound […]. Singh et al. used RNA interference to down regulate mutant K-RAS in a large number of human cancer cell lines.^102 They reported that the H358 cell line is very sensitive to losing mutant K-Ras whereas the A549 cell line is hardly affected. Both are lung cancer cell lines.
On the technique in general: Tetrazolium dyes change colour on reduction, which living cells bring about.

The subject of assay [2] is A549 lung cancer cell line. Description: MTT viability assay. Type of assay: cell-based, human. Here is the method:
as §1, §2

The target in a further assay is K-Ras and RalGDS (Homo sapiens, UniProt P01116, G12V). Briefly: bead assay: K-Ras binding to immobilized Myc-tagged effector protein. Conditions: 10 μM compound; Texas red-labeled GST-K-Ras 100 nM. From the text:
The Myc-tagged effector proteins were immobilized on protein A-beads with an anti-Myc antibody.

Another assay concerns the target K-Ras and PI3 kinase (Homo sapiens, UniProt P01116, G12V). The description is as above. Conditions: 10 μM compound; Texas red-labeled GST-K-Ras 100 nM. Here is the method:
(§3) Compound B12 was also assayed for its ability to inhibit the PPI between K-Ras and its effector proteins including PI3 kinase, Tiam, and RalGDS. The Myc-tagged effector proteins were immobilized on protein A-beads with an anti-Myc antibody.

The next assay has as its target K-Ras and Tiam (Homo sapiens, UniProt P01116, G12V). The description is as above. The following applies: 10 μM compound; Texas red-labeled GST-K-Ras 100 nM. Here is the method: as §3
The next assay concerns the target FKBP (no GST) (Homo sapiens, UniProt P62942). Description: fluorescence polarization binding of FITC-labeled compound to FKBP.
[3] abbreviates: Table 2, converted from IC50 by Cheng-Prusoff equation, read-out: Ki.

The structures appear in SMILES notation. Entries after “also recorded” stand apart in the source; their conditions may differ. Like-named read-outs stand apart in the source and are kept apart here. Numbered stars: 1 amine (or outer) side, 2 acyl side, 3 side chain; on linkers, the order of the positions; unused ones are H or OH. Bridge positions count the residues as written; N and C are the ends. Square brackets hold non-standard residues; d marks the D form. Peptide text beside a SMILES is read from it. dβ3h(hPhe) = O=C(C[C@@H](CCc1ccccc1)N[*:1])[*:2]; Phe(4-F) = N[C@@H](Cc1ccc(F)cc1)C(=O)O; d2Nal = N[C@H](Cc1ccc2ccccc2c1)C(=O)O; X1 = CC(C)(CO[*:2])C(=O)C(=O)[*:1]; dNle = CCCC[C@@H](N)C(=O)O; Pip = O=C(O)[C@@H]1CCCCN1

T1 sequence (P62942 whole entry): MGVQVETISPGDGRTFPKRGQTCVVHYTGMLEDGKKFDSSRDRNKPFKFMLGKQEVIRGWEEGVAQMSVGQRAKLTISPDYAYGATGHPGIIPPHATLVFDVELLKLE
Sequence of K-Ras and RalGDS (P01116 1-188 isoform P01116-2 G12V): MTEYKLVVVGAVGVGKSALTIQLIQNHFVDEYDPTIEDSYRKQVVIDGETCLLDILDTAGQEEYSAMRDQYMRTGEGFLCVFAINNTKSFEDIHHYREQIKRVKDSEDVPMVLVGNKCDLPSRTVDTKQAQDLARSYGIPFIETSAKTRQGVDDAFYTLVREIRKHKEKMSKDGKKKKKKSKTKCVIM
Sequence of FKBP (no GST) (P62942 whole entry): as the sequence (P62942 whole entry) above
Sequence of K-Ras and PI3 kinase (P01116 1-188 isoform P01116-2 G12V): as the sequence (P01116 1-188 isoform P01116-2 G12V) above
Sequence of K-Ras and Tiam (P01116 1-188 isoform P01116-2 G12V): as above

`C[C@@H]1NC(=O)[C@H](C)NC(=O)[C@H](CCC(N)=O)NC(=O)[C@H](C)NC(=O)[C@@H]2CCCCN2C(=O)C(=O)C(C)(C)COC(=O)[C@@H](C)NC1=O` [Compound 2a] (HELM PEPTIDE1{[O=C([C@@H]1CCCCN1[*:1])[*:2]].A.Q.A.A.[dA]}|CHEM1{[CC(C)(CO[*:2])C(=O)C(=O)[*:1]]}$PEPTIDE1,CHEM1,1:R1-1:R1|PEPTIDE1,CHEM1,6:R2-1:R2$$$V2.0): the Ki (as a rule, a measure of affinity in units of concentration, obtained from inhibition or displacement) at FKBP (setting [3]) is 7000 ± 1000 nM.

Regarding `C[C@@H]1NC(=O)[C@H](C)NC(=O)[C@H](CCC(N)=O)NC(=O)C[C@H](CCc2ccccc2)NC(=O)[C@@H]2CCCCN2C(=O)C(=O)C(C)(C)COC(=O)[C@H](Cc2ccccc2)NC1=O` [Compound 2j], the Ki on FKBP amounted to 800 ± 100 nM. For `C[C@@H]1NC(=O)[C@H](C)NC(=O)[C@H](CCC(N)=O)NC(=O)C[C@@H](CCc2ccccc2)NC(=O)[C@@H]2CCCCN2C(=O)C(=O)C(C)(C)COC(=O)[C@@H](C)NC(=O)[C@H](C)NC1=O` [Compound 2p] ([Pip][dβ3h(hPhe)]QAAA[dA]; linker N-C via X1), the Ki at FKBP (setting [3]) is 180 ± 60 nM. Take `C[C@@H]1NC(=O)[C@H](C)NC(=O)[C@H](CCC(N)=O)NC(=O)C[C@@H](CCc2ccccc2)NC(=O)[C@@H]2CCCCN2C(=O)C(=O)C(C)(C)COC(=O)[C@H]([C@@H](C)O)NC(=O)[C@H](C)NC1=O` [Compound 2r] ([Pip][dβ3h(hPhe)]QAAAT; linker N-C via X1): the Ki on FKBP (setting [3]) is 300 ± 100 nM. For the compound `C[C@@H]1NC(=O)[C@H](CCC(N)=O)NC(=O)C[C@@H](CCc2ccccc2)NC(=O)[C@@H]2CCCCN2C(=O)C(=O)C(C)(C)COC(=O)[C@H](Cc2ccccc2)NC(=O)[C@H](C)NC(=O)[C@@H](C)NC1=O` [Compound 2s] ([Pip][dβ3h(hPhe)]QA[dA]AF; linker N-C via X1), the Ki at FKBP worked out at 900 ± 200 nM. Turning to `CCCC[C@H]1NC(=O)[C@H](Cc2ccc(F)cc2)NC(=O)[C@H](CCCNC(=N)N)NC(=O)[C@@H](Cc2ccc3ccccc3c2)NC(=O)[C@H](CCCNC(=N)N)NC(=O)[C@H](CCCNC(=N)N)NC(=O)[C@H](CCC(N)=O)NC(=O)C[C@@H](CCc2ccccc2)NC(=O)[C@@H]2CCCCN2C(=O)C(=O)C(C)(C)COC1=O` [Compound C12] ([Pip][dβ3h(hPhe)]QRR[d2Nal]R[Phe(4-F)][dNle]; linker N-C via X1), the “sensitivity of cells to compound” value is listed as “sensitive” in assay [1] (FIG. 14) and “significantly less sensitive” in assay [2] (FIG. 14). Besides, the IC50 (in general, the concentration needed to halve the response being measured) is roughly 10000 nM in assay [1] (H358 cells, proliferation and survival, preliminary); roughly 50000 nM in assay [2] (A549 cells, proliferation and survival, preliminary). At K-Ras and RalGDS, the “binding of GST-KRas to immobilized RalGDS” value is reported as “completely blocked; also recorded: Disruption”. The “binding of GST-KRas to immobilized PI3 kinase” value on K-Ras and PI3 kinase is reported as “completely blocked”. Besides, on K-Ras and Tiam, the “binding of GST-KRas to immobilized Tiam” value is “completely blocked”. Regarding `CCCC[C@H]1NC(=O)[C@H](Cc2ccc(F)cc2)NC(=O)[C@H](CCCN=C(N)N)NC(=O)[C@@H](Cc2ccc3ccccc3c2)NC(=O)[C@H](CCCN=C(N)N)NC(=O)[C@H](CCCN=C(N)N)NC(=O)[C@H](CCC(N)=O)NC(=O)C[C@@H](CCc2ccccc2)NC(=O)[C@@H]2CCCCN2C(=O)C(=O)C(C)(C)COC1=O` [Compound C12] ([Pip][dβ3h(hPhe)]QRR[d2Nal]R[Phe(4-F)][dNle]; linker N-C via X1), the Kd (commonly the constant that tells how readily two partners part at equilibrium) on FKBP (no GST) was determined as 500 nM.
